Assay results published in patent US12023391B2, “Alpha(v)beta(6) integrin-binding peptides and methods of use thereof” (The Regents of the University of California, priority 2016, dated 2024).
Like-named read-outs stand apart in the source and are kept apart here. Residues, ends and D or L forms follow the SMILES beside them. *: point of attachment. Benzoyl(4-F) = O=C(c1ccc(F)cc1)*

How the values were obtained:
αvβ6 integrin = αvβ6 integrin (Homo sapiens, UniProt P06756+P18564); assay: Competitive binding ELISA with purified integrin, αvβ6
Method: (§1) Small aliquots (50 mg, ˜150,000 beads) were incubated with a mixture of red fluorescent DX3 ITGβ6 mCherry (αvβ6-positive) and green fluorescent DX3 EmGFP (αvβ6-negative) cells for 3 hours and evaluated under a fluorescent microscope. Beads that were covered only by red (i.e. αvβ6-positive) cells were isolated; these beads were subsequently characterized by Edman sequencing. Following synthesis of the identified peptides, competitive binding ELISA was performed with purified integrin to evaluate binding specificities for the target αvβ6 integrin as well as closely related αv-integrins.
(§2) Anti-αv capture antibody P2W7 (5 μg/mL, Novus Biologicals) was coated onto Nunc MaxiSorp 96-well plates, followed by blocking with BSA overnight at 4° C. All wells were washed 3 times with PBS, followed by plating of purified integrin (3 μg/mL) and incubating at room temperature in a humid chamber for 1 hour. Peptide solutions, titrated (1 μM-1 pM for αvβ6 integrin and 100 μM-100 pM for αvβ3 integrin) and mixed with biotinylated natural ligand, were added to the integrin-coated wells in triplicate. […] Captured biotinylated natural ligand was detected with ExtrAvidin-HRP and developed with TMB substrate. Half-maximal inhibitory concentration (IC50) of peptides was determined fitting to sigmoidal dose-response model in GraphPad Prism 6.0 (FIG. 5A).

[1] = target: (Homo sapiens, UniProt P06756+P18084); assay: Competitive binding ELISA with purified integrin, αvβ4 (so in the source)
Method: as §1
Anti-αv capture antibody P2W7 (5 μg/mL, Novus Biologicals) was coated onto Nunc MaxiSorp 96-well plates, followed by blocking with BSA overnight at 4° C. All wells were washed 3 times with PBS, followed by plating of purified integrin (3 μg/mL) and incubating at room temperature in a humid chamber for 1 hour. Peptide solutions, titrated (1 μM-1 pM for αvβ6 integrin and 100 μM-100 pM for αvβ3 integrin) and mixed with biotinylated natural ligand, were added to the integrin-coated wells in triplicate. After incubating for an hour at room temperature, the plate was washed 3 times with wash buffer. Captured biotinylated natural ligand was detected with ExtrAvidin-HRP and developed with TMB substrate. Half-maximal inhibitory concentration (IC50) of peptides was determined fitting to sigmoidal dose-response model in GraphPad Prism 6.0 (FIG. 5A).

αvβ3 integrin = αvβ3 integrin (Homo sapiens, UniProt P05106+P06756); assay: Competitive binding ELISA with purified integrin, αvβ3
Method: as §1, with “As described further below, a 9-mer XXDLXXLXK(FB) (SEQ ID NO: 23) peptide library was assembled on TentaGel resin (1 g, ˜3,000,000 beads) using standard Fmoc chemistry. Small” for “Small”
as §2, with “hour.” for “hour. Peptide solutions, titrated (1 μM-1 pM for αvβ6 integrin and 100 μM-100 pM for αvβ3 integrin) and mixed with biotinylated natural ligand, were added to the integrin-coated wells in triplicate.”, “5A). […]” for “5A).”

αvβ1 = αvβ1 (Homo sapiens, UniProt P05556+P06756); assay: Competitive binding ELISA with purified integrin, αvβ1
Method: as §1, with “As described further below, a 9-mer XXDLXXLXK(FB) (SEQ ID NO: 23) peptide library was assembled on TentaGel resin (1 g, ˜3,000,000 beads) using standard Fmoc chemistry. Small” for “Small”
as §2, with “hour.” for “hour. Peptide solutions, titrated (1 μM-1 pM for αvβ6 integrin and 100 μM-100 pM for αvβ3 integrin) and mixed with biotinylated natural ligand, were added to the integrin-coated wells in triplicate.”, “5A). […]” for “5A).”

[2] = Log P of radiolabeled peptide; format: physicochemical; conditions: peptide radiolabeled with [18F]fluorobenzoic acid
Method: (§3) Based on selectivity profiles of all peptides, the ST1-62 peptide was selected to move forward for radiolabeling with [^18F]fluorobenzoic acid for log P, serum stability, and cell binding studies. Log P=−1.09±0.02 (FIG. 6B). Serum stability of the peptide was determined at 1 hour after incubating with mouse serum at 37° C. (FIG. 7A).

[3] = Serum stability in mouse serum, HPLC analysis; format: in vitro ADME; conditions: [18F]-radiolabeled peptide, 37° C., an hour
Method: Serum stability study analysis of Peptide 1 (ST1-62) (SEQ ID NO:2) was performed by first incubating the radiolabeled peptide ([^18F]; 25 μCi) with commercially available mouse serum at 37° C. for an hour. The radiotracer was removed from serum by precipitating out the protein with cold EtOH and then injected into a HPLC for analysis.
as §3

[4] = system: DX3puroβ6 (αvβ6-positive) and DX3 puro (αvβ6-negative) cells; assay: Flow cytometry binding to DX3puroβ6 and DX3 puro cells; format: cell-based, human; conditions: peptide concentrations of 10 μM and 100 μM
From the text: FIGS. 8A and 8B show binding of a peptide labeled with FAM-X ([…]-FAM-X; SEQ ID NO:15) to DX3puroβ6 and DX3 puro cells. […] 150,000 cells were used in each experiment. […] These studies used 75,000, 150,000, or 300,000 cells per experiment. The control experiment used 300,000 unstained cells.
Flow cytometry was used to assay the binding of a peptide labeled with FAM-X ([…]-FAM-X; SEQ ID NO:15) to DX3puroβ6 and DX3 puro cells.

With CN[C@H](C(=O)NCC(=O)N[C@@H](CC(=O)O)C(=O)N[C@@H](CC(C)C)C(=O)N[C@H](C(=O)N[C@@H](Cc1ccc(O)cc1)C(=O)N[C@@H](CC(C)C)C(=O)N[C@@H](CCCCN)C(=O)N[C@@H](CCCCNC(=O)c1ccc(F)cc1)C(N)=O)[C@@H](C)O)C(C)C the IC50 (αvβ6 integrin) was 0.5 µM.
For CSCC[C@H](NC(=O)[C@H](CC(C)C)NC(=O)[C@H](CC(=O)O)NC(=O)CNC(=O)[C@@H](N)CCCNC(=N)N)C(=O)N[C@@H](CCCCN)C(=O)N[C@@H](CC(C)C)C(=O)N[C@@H](C)C(=O)N[C@@H](CCCCNC(=O)c1ccc(F)cc1)C(N)=O [ST1-59] (H-RGDLMKLAK(Benzoyl(4-F))-NH2), the IC50 [1] was > 100 µM.
In the case of CC(C)C[C@H](NC(=O)[C@H](CC(=O)O)NC(=O)CNC(=O)[C@@H](N)CCCNC(=N)N)C(=O)N[C@@H](C)C(=O)N[C@@H](CC(=O)O)C(=O)N[C@@H](CC(C)C)C(=O)N[C@@H](CCCNC(=N)N)C(=O)N[C@@H](CCCCNC(=O)c1ccc(F)cc1)C(N)=O [ST1-60] (H-RGDLADLRK(Benzoyl(4-F))-NH2), the IC50 ([1]; competitive binding ELISA, read-out: IC50 αvβ4) is reported as > 100 µM and the IC50 (αvβ3 integrin) is reported as 0.5 µM.
For CC(C)C[C@H](NC(=O)[C@H](CCC(=O)O)NC(=O)[C@H](CCCNC(=N)N)NC(=O)[C@H](CC(C)C)NC(=O)[C@H](CC(=O)O)NC(=O)CNC(=O)[C@@H](N)CCCNC(=N)N)C(=O)N[C@@H](C)C(=O)N[C@@H](CCCCNC(=O)c1ccc(F)cc1)C(N)=O [ST1-61] (H-RGDLRELAK(Benzoyl(4-F))-NH2), the IC50 [1] was > 100 µM.
For CC(C)C[C@H](NC(=O)[C@H](Cc1ccc(O)cc1)NC(=O)[C@@H](NC(=O)[C@H](CC(C)C)NC(=O)[C@H](CC(=O)O)NC(=O)CNC(=O)[C@@H](N)C(C)C)[C@@H](C)O)C(=O)N[C@@H](CCCCN)C(=O)N[C@@H](CCCCNC(=O)c1ccc(F)cc1)C(N)=O [ST1-62], the IC50 [1] was > 100 µM, the IC50 (αvβ1) was > 100 µM and the logP [2] was -1.09 ± 0.02. For the same compound, the Serum stability [3] was “cleaved by proteases within an hour”.
In the case of “VGDLTYLKK-FAM-X (FAM label; C-term FAM-X, fluorescein dye/label) [Fluorescent labeled peptide]”, the “Binding to αvβ6-positive versus αvβ6-negative cells” value [4] is reported as “increased binding to the αvβ6-positive cells than the αvβ6-negative cells”.
